Converted amounts (≈) assume the structure as drawn. “And” between values parts separate entries of the source, which are not always exact repeats. Equal entries are not always repeated. Where two headings read alike, the source gives them in different places. Numbered stars: 1 amine (or outer) side, 2 acyl side, 3 side chain; on linkers, the order of the positions; unused ones are H or OH. Square brackets hold non-standard residues; d marks the D form. Ends that are not written are not given here. Peptide text beside a SMILES is read from it. Gly(N-CH2CH2-imidazol-4-yl) = O=C(O)CNCCc1c[nH]cn1; X1 = CC(C)[C@H](C)N(CC(=O)[*:2])[*:1]; Nspe = C[C@H](NCC(=O)O)c1ccccc1; Nphe = O=C(O)CNCc1ccccc1; Nlys = NCCCCNCC(=O)O
Experiments:
Assay type in all cases: cell-based
[1] = tested on: B. subtilis ATCC 6633; details: for Selectivity ratio SR B. subtilis: Table 6, ratio of 10% hemolytic dose to B. subtilis MIC
Summary of the method: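 Broth microdilution MICs per CLSI M7-A6 in cation-adjusted Mueller-Hinton broth, using 1×10^6 CFU/mL inoculum added 1:1 to twofold serial peptoid dilutions. Values reproducible across three independent experiments, each with two parallel trials.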

[2] = tested on: E. coli ATCC 35218; details: for SR: Table 8, calculated as HD10/E. coli MIC; for Selectivity ratio SR E. coli: Table 6, ratio of 10% hemolytic dose to E. coli MIC
[3] = tested on: Staphylococcus aureus ATCC 29213; details: for Selectivity ratio (SR): Table 7B, 10% hemolytic dose divided by MIC
Protocol: (§1) Antibacterial assays. MICs were determined according to CLSI M7-A6 protocols in a 96-well microtiter plate. In test wells, 50 uL bacterial inoculum (5×10^5 CFU/ml) in Mueller-Hinton broth (MHB) was added to 50 μL peptoid solution in MHB (prepared by 1:2 serial dilutions). Positive controls contained 50 μL inoculum and 50 μL MHB without peptoid. […] MIC values reported were reproducible between three independent experimental replicates, each consisting of two parallel trials. Broad-spectrum antimicrobial susceptibility testing was performed against BSL2 pathogens by Nova Biologicals, Inc. (Conroe, Tex.).
(§2) Broad-spectrum antibacterial assays. MICs of compounds were determined by microdilution procedure in Mueller-Hinton broth (MHB) in accordance with CLSI M7-A6 protocols in a manner similar to that described for the screen antibacterial assays. Inoculated microtiter plates were incubated at 35° C. for 24 hours prior to the result being recorded. Four ATCC strains that were used as standards are recommended by CLSI: Pseudomonas aeruginosa ATCC 27853, Escherichia coli ATCC 25922, Staphylococcus aureus ATCC 29213 and Enterococcus faecalis ATCC 29212. Other strains from the ATCC collection include Proteus vulgaris ATCC 49132, Proteus mirabilis ATCC 35659, Klebsiella pneumoniae ATCC 33495, Enterobacter aerogenes ATCC 35029 and Serratia marcescens ATCC 13880. S. aureus NRS100 (COL) is a well characterized methicillian-resistant S. aureus (MRSA) strain. The strains S. aureus VAN1 and S. aureus VAN2, vancomycin-resistant MRSA strains that were isolated in Michigan and Pennsylvania, were the first vancomycin-resistant strains clinically isolated. S. aureus NRS 119 and S. aureus NRS 120 are linezolid-resistant isolates from the Network on Antimicrobial Resistance in S. aureus (NARSA) collection. E. faecalis 99 and E. faecium 106 are vancomycin-resistant enterococcal strains.

[4] = tested on: Enterococcus faecalis 99; details: for Selectivity ratio (SR): Table 7B, 10% hemolytic dose divided by MIC
Protocol: as §1, §2

[5] = tested on: Enterococcus faecalis ATCC 29212; details: for Selectivity ratio (SR): Table 7B, 10% hemolytic dose divided by MIC
Protocol: as §1, §2

[6] = tested on: Proteus vulgaris ATCC 49132; details: for Selectivity ratio (SR): Table 7B, 10% hemolytic dose divided by MIC
Protocol: as §1, §2

[7] = tested on: Staphylococcus aureus NRS100 (COL); details: for Selectivity ratio (SR): Table 7B, 10% hemolytic dose divided by MIC, S. aureus NRS100 (COL)
Protocol: as §1, §2

[8] = tested on: Staphylococcus aureus NRS119; details: for Selectivity ratio (SR): Table 7B, 10% hemolytic dose divided by MIC, S. aureus NRS119
Protocol: as §1, §2

[9] = tested on: Klebsiella pneumoniae ATCC 33495; details: for Selectivity ratio (SR): Table 7B, 10% hemolytic dose divided by MIC
Protocol: as §1, §2

[10] = tested on: Pseudomonas aeruginosa ATCC 27853; details: for Selectivity ratio (SR): Table 7B, 10% hemolytic dose divided by MIC
Protocol: as §1, §2

[11] = tested on: Staphylococcus aureus NRS120; details: for Selectivity ratio (SR): Table 7B, 10% hemolytic dose divided by MIC, S. aureus NRS120
Protocol: as §1, §2

[12] = tested on: Enterobacter aerogenes ATCC 35029; details: for Selectivity ratio (SR): Table 7B, 10% hemolytic dose divided by MIC
Protocol: as §1, §2

[13] = tested on: Enterococcus faecium 106; details: for Selectivity ratio (SR): Table 7B, 10% hemolytic dose divided by MIC
Protocol: as §1, §2

[14] = tested on: Staphylococcus aureus VAN1; details: for Selectivity ratio (SR): Table 7B, 10% hemolytic dose divided by MIC, S. aureus VAN1
Protocol: as §1, §2

[15] = tested on: Staphylococcus aureus VAN2; details: for Selectivity ratio (SR): Table 7B, 10% hemolytic dose divided by MIC, S. aureus VAN2
Protocol: as §1, §2

[16] = tested on: Escherichia coli ATCC 25922; details: for Selectivity ratio (SR): Table 7B, 10% hemolytic dose divided by MIC
Protocol: as §1, §2

## C[C@@H](c1ccccc1)N(CC(=O)N(CCc1cnc[nH]1)CC(=O)N(CCCCN)CC(=O)N(CC(=O)N(CC(=O)N(CCCCN)CC(=O)N(CC(=O)N(CCc1cnc[nH]1)CC(N)=O)[C@@H](C)c1ccccc1)[C@@H](C)c1ccccc1)[C@@H](C)c1ccccc1)C(=O)CN(CCCCN)C(=O)CN(C(=O)CN(C(=O)CNCCCCN)[C@@H](C)c1ccccc1)[C@@H](C)c1ccccc1 [1-Nhis6,12, H-(Nlys-Nspe-Nspe-Nlys-Nspe-Nhis)2-NH2] (H-[Nlys][Nspe][Nspe][Nlys][Nspe][Gly(N-CH2CH2-imidazol-4-yl)][Nlys][Nspe][Nspe][Nlys][Nspe][Gly(N-CH2CH2-imidazol-4-yl)]-NH2)
[1]
  MIC for B. subtilis ATCC 6633: 0.78 to 1.6 µM
[2]
  MIC for E. coli ATCC 35218: 50 µM
  SR: >4.0

## GIGKFLKKAKKFGKAFVKILKK-NH2 [pexiganan, reference compound]
[1]
  Selectivity ratio SR B. subtilis: 44
[2]
  MIC for E. coli ATCC 35218: 3.1 to 6.3 µM
  Selectivity ratio SR E. coli: 11
  SR: 12
[3]; Table 7A, S. aureus ATCC 29213
  MIC: 32 µg/mL
[3]; S. aureus ATCC 29213
  Selectivity ratio (SR): 5.7
[4]; Table 7A, E. faecalis 99
  MIC: 128 µg/mL
[4]; E. faecalis 99
  Selectivity ratio (SR): 1.4
[5]; Table 7A, E. faecalis ATCC 29212
  MIC: 32 µg/mL
[5]; E. faecalis ATCC 29212
  Selectivity ratio (SR): 5.7
[6]; Table 7A, P. vulgaris ATCC 49132
  MIC: 32 µg/mL
[6]; P. vulgaris ATCC 49132
  Selectivity ratio (SR): 5.7
[7]; Table 7A, S. aureus NRS100 (COL) (MRSA)
  MIC: 16 µg/mL
[7]
  Selectivity ratio (SR): 11
[8]; Table 7A, S. aureus NRS119 (linezolid-resistant)
  MIC: 64 µg/mL
[8]
  Selectivity ratio (SR): 2.8
[9]; Table 7A, K. pneumoniae ATCC 33495
  MIC: 8 µg/mL
[9]; K. pneumoniae ATCC 33495
  Selectivity ratio (SR): 23
[10]; Table 7A, P. aeruginosa ATCC 27853
  MIC: 4 µg/mL
[10]; P. aeruginosa ATCC 27853
  Selectivity ratio (SR): 46
[11]; Table 7A, S. aureus NRS120 (linezolid-resistant)
  MIC: 64 µg/mL
[11]
  Selectivity ratio (SR): 2.8
[12]; Table 7A, E. aerogenes ATCC 35029
  MIC: 32 µg/mL
[12]; E. aerogenes ATCC 35029
  Selectivity ratio (SR): 5.7
[13]; Table 7A, E. faecium 106
  MIC: 4 µg/mL
[13]; E. faecium 106
  Selectivity ratio (SR): 46
[14]; Table 7A, S. aureus VAN1 (MRSA, vancomycin-resistant)
  MIC: 16 µg/mL
[14]
  Selectivity ratio (SR): 11
[15]; Table 7A, S. aureus VAN2 (MRSA, vancomycin-resistant)
  MIC: 8 µg/mL
[15]
  Selectivity ratio (SR): 23
[16]; Table 7A, E. coli ATCC 25922
  MIC: 8 µg/mL
[16]; E. coli ATCC 25922
  Selectivity ratio (SR): 23

## NCCCCNCC(=O)N(CC(=O)N(CC(=O)N(CCCCN)CC(=O)N(CC(=O)N(CC(=O)N(CCCCN)CC(=O)N(CC(=O)N(CC(=O)N(CCCCN)CC(=O)N(CC(=O)N(CC(N)=O)Cc1ccccc1)Cc1ccccc1)Cc1ccccc1)Cc1ccccc1)Cc1ccccc1)Cc1ccccc1)Cc1ccccc1)Cc1ccccc1 [1achiral, H-(Nlys-Npm-Npm)4-NH2] (H-[Nlys][Nphe][Nphe][Nlys][Nphe][Nphe][Nlys][Nphe][Nphe][Nlys][Nphe][Nphe]-NH2)
[1]
  MIC for B. subtilis ATCC 6633: 1.6 µM
  Selectivity ratio SR B. subtilis: 235
[2]
  MIC for E. coli ATCC 35218: 12.5 µM
  Selectivity ratio SR E. coli: 15
  SR: 14
[3]; S. aureus ATCC 29213
  Selectivity ratio (SR): 39
[4]; E. faecalis 99
  Selectivity ratio (SR): 4.9
[5]; E. faecalis ATCC 29212
  Selectivity ratio (SR): 19
[6]; P. vulgaris ATCC 49132
  Selectivity ratio (SR): 9.8
[7]
  Selectivity ratio (SR): 39
[8]
  Selectivity ratio (SR): 19
[9]; K. pneumoniae ATCC 33495
  Selectivity ratio (SR): 39
[10]; P. aeruginosa ATCC 27853
  Selectivity ratio (SR): 19
[11]
  Selectivity ratio (SR): 19
[12]; E. aerogenes ATCC 35029
  Selectivity ratio (SR): 2.4
[13]; E. faecium 106
  Selectivity ratio (SR): 79
[14]
  Selectivity ratio (SR): 39
[15]
  Selectivity ratio (SR): 39
[16]; E. coli ATCC 25922
  Selectivity ratio (SR): 19

## CC(C)[C@H](C)N(CC(=O)N(CC(=O)N(CCCCN)CC(=O)N(CC(=O)N(CC(=O)N(CCCCN)CC(=O)N(CC(=O)N(CC(=O)N(CCCCN)CC(=O)N(CC(=O)N(CC(N)=O)[C@@H](C)c1ccccc1)[C@@H](C)C(C)C)[C@@H](C)c1ccccc1)[C@@H](C)C(C)C)[C@@H](C)c1ccccc1)[C@@H](C)C(C)C)[C@@H](C)c1ccccc1)C(=O)CNCCCCN [1-Nsdp2,5,8,11, H-(Nlys-Nsdp-Nspe)4-NH2] (H-[Nlys][X1][Nspe][Nlys][X1][Nspe][Nlys][X1][Nspe][Nlys][X1][Nspe]-NH2)
[1]
  Selectivity ratio SR B. subtilis: 142
[2]
  Selectivity ratio SR E. coli: > 9.7 and 9.7
[2]; listed as 1-Nspd2,5,8,11
  Selectivity ratio SR E. coli: 9.7
[3]; ATCC 29213
  MIC: 8 µg/mL (≈ 4.75 µM)
[3]; S. aureus ATCC 29213
  Selectivity ratio (SR): 23
[4]; 99
  MIC: 64 µg/mL (≈ 38 µM)
[4]; E. faecalis 99
  Selectivity ratio (SR): 2.9
[5]; ATCC 29212
  MIC: 8 µg/mL (≈ 4.75 µM)
[5]; E. faecalis ATCC 29212
  Selectivity ratio (SR): 23
[6]; ATCC 49132
  MIC: 32 µg/mL (≈ 19 µM)
[6]; P. vulgaris ATCC 49132
  Selectivity ratio (SR): 5.8
[7]; NRS100 (COL)
  MIC: 8 µg/mL (≈ 4.75 µM)
[7]
  Selectivity ratio (SR): 23
[8]; NRS119
  MIC: 16 µg/mL (≈ 9.51 µM)
[8]
  Selectivity ratio (SR): 12
[9]; ATCC 33495
  MIC: 8 µg/mL (≈ 4.75 µM)
[9]; K. pneumoniae ATCC 33495
  Selectivity ratio (SR): 23
[10]; ATCC 27853
  MIC: 16 µg/mL (≈ 9.51 µM)
[10]; P. aeruginosa ATCC 27853
  Selectivity ratio (SR): 12
[11]; NRS120
  MIC: 16 µg/mL (≈ 9.51 µM)
[11]
  Selectivity ratio (SR): 23
[12]; ATCC 35029
  MIC: 32 µg/mL (≈ 19 µM)
[12]; E. aerogenes ATCC 35029
  Selectivity ratio (SR): 5.8
[13]; 106
  MIC: 4 µg/mL (≈ 2.38 µM)
[13]; E. faecium 106
  Selectivity ratio (SR): 46
[14]
  Selectivity ratio (SR): 23
[14]; VAN1
  MIC: 8 µg/mL (≈ 4.75 µM)
[15]
  Selectivity ratio (SR): 23
[15]; VAN2
  MIC: 8 µg/mL (≈ 4.75 µM)
[16]; ATCC 25922
  MIC: 8 µg/mL (≈ 4.75 µM)
[16]; E. coli ATCC 25922
  Selectivity ratio (SR): 23

— patent publication US20120295838A1, “Selective poly-substituted glycine antibiotics and related compositions” (priority 2008, published 2012)
